According to ChEMBL document CHEMBL5291721, “A preclinical secondary pharmacology resource illuminates target-adverse drug reaction associations of marketed drugs” (Nat Commun, 2023):

Columns and labels:
Bile salt export pump = Bile salt export pump (Homo sapiens, UniProt O95342); assay type: functional
[1] = molecular target: T1, Amine oxidase [flavin-containing] A (Homo sapiens, UniProt P21397); assay type: functional
T1 sequence (P21397 whole entry): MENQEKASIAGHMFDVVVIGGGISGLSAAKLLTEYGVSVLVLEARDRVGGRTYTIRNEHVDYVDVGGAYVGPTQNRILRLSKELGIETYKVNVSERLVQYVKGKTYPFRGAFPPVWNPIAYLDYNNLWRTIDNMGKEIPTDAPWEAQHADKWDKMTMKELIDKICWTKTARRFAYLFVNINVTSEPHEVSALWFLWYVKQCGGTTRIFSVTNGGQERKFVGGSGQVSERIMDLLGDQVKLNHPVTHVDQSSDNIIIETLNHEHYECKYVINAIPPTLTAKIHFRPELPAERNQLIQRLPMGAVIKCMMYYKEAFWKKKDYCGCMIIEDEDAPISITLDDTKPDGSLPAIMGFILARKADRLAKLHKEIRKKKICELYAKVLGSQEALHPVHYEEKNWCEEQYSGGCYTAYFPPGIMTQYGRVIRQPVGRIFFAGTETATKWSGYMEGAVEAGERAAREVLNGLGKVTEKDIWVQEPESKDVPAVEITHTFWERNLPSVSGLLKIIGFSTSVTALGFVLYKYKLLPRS

[2] = molecular target: T2, Prostaglandin G/H synthase 1 (Homo sapiens, UniProt P23219); assay type: functional
T2 sequence (P23219 whole entry): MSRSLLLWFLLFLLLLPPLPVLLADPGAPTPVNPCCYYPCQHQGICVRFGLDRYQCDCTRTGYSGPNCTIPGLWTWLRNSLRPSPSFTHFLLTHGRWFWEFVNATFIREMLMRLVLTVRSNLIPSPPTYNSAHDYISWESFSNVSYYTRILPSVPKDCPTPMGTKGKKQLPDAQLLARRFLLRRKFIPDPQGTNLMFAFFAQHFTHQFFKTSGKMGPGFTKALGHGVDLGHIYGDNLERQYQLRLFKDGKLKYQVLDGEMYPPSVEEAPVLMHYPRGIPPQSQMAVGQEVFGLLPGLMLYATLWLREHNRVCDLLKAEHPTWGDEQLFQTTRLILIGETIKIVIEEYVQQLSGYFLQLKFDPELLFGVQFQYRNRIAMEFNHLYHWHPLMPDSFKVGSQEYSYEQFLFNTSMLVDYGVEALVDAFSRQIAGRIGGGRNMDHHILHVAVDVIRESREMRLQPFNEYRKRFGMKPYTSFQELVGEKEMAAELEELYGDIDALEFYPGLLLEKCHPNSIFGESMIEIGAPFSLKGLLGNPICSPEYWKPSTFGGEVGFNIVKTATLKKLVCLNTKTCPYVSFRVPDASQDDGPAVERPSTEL

Histamine H3 receptor = Histamine H3 receptor (Homo sapiens, UniProt Q9Y5N1)
Sequence of Histamine H3 receptor (Q9Y5N1 whole entry): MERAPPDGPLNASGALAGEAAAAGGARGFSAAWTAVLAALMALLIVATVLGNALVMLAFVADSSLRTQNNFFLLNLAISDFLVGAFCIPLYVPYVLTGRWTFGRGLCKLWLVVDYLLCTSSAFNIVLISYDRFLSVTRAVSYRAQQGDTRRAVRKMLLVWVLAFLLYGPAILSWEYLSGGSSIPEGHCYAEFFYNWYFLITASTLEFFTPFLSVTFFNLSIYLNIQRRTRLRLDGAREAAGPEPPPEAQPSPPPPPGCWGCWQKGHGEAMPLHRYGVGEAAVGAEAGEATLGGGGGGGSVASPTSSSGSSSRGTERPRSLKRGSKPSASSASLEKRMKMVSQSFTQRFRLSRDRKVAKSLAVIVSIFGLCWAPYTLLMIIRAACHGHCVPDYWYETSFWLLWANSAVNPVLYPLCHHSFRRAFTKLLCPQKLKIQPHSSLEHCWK

[3] = molecular target: cGMP-inhibited 3',5'-cyclic phosphodiesterase 3A (Homo sapiens, UniProt Q14432); assay type: functional
Sequence of cGMP-inhibited 3',5'-cyclic phosphodiesterase 3A (Q14432 whole entry): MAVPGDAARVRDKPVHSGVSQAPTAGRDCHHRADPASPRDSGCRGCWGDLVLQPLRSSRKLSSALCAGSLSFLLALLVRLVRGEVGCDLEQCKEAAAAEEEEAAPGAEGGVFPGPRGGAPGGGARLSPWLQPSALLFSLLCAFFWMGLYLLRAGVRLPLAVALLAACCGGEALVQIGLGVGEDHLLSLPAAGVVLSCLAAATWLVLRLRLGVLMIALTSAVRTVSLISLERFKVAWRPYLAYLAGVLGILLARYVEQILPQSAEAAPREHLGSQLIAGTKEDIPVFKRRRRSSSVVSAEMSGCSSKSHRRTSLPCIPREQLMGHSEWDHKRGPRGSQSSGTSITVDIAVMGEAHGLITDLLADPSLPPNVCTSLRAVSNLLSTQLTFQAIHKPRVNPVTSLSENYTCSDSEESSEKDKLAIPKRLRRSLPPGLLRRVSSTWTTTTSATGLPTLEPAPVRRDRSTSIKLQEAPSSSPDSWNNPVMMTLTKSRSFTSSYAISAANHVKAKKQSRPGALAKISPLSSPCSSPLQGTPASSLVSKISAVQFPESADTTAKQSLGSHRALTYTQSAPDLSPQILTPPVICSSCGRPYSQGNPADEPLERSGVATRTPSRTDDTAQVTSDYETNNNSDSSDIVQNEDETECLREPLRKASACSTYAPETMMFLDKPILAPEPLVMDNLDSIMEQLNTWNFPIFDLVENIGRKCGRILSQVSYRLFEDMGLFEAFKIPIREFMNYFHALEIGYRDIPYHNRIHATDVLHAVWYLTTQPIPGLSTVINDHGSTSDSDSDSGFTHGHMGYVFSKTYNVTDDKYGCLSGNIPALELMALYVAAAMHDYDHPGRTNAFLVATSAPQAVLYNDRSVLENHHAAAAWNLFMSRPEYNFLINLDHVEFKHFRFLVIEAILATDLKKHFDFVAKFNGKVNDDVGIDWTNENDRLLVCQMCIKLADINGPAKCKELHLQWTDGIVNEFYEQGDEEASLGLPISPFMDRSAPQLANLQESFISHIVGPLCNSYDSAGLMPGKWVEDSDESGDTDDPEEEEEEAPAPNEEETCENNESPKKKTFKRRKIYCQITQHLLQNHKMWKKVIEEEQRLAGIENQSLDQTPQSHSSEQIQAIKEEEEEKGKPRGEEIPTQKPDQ

Acetylcholinesterase = Acetylcholinesterase (Homo sapiens, UniProt P22303); assay type: functional
Sequence of Acetylcholinesterase (P22303 whole entry): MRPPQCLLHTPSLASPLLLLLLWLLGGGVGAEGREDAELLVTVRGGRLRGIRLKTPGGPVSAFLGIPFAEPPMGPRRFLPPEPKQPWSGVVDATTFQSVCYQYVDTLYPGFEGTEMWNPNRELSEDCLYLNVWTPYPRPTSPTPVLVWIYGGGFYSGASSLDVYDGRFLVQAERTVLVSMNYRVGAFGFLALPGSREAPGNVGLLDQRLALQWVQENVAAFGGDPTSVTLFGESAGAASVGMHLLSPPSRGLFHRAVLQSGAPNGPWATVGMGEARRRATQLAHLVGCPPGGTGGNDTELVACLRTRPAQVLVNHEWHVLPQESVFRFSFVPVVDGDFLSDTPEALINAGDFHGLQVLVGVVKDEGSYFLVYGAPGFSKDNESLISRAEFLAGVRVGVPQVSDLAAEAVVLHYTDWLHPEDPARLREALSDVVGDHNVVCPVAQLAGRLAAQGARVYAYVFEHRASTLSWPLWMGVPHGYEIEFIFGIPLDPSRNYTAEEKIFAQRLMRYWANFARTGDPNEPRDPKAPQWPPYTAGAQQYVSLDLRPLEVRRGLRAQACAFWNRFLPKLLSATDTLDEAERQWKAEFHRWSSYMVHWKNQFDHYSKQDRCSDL

[4] = molecular target: T3, Alpha-2A adrenergic receptor (Homo sapiens, UniProt P08913)
T3 sequence (P08913 whole entry): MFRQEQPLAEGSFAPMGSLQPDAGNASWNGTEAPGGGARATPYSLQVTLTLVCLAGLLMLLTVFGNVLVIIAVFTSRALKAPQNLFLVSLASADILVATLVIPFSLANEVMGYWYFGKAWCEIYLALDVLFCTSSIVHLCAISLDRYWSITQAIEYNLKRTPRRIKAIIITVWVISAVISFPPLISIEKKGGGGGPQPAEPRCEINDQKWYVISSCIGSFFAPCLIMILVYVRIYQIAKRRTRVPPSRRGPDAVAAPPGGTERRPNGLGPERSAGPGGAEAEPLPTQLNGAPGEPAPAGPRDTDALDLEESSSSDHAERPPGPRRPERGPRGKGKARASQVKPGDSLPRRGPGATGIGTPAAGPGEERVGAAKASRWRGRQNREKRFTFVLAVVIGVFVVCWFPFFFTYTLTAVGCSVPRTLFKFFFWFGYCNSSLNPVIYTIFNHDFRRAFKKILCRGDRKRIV

Thromboxane A2 receptor [5] = molecular target: T4, Thromboxane A2 receptor (Homo sapiens, UniProt P21731); assay type: functional, cell-based
T4 sequence (P21731 whole entry): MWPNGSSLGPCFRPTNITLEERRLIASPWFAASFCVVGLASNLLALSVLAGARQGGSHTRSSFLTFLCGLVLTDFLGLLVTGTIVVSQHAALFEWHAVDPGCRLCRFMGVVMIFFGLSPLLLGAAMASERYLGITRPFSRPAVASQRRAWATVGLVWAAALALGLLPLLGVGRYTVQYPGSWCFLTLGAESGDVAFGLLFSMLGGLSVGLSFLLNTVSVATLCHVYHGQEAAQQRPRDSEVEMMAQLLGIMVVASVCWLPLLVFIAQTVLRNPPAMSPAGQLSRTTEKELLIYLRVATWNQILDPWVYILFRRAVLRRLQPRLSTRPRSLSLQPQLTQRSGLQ

[6] = molecular target: T5, Muscarinic acetylcholine receptor M2 (Homo sapiens, UniProt P08172)
T5 sequence (P08172 whole entry): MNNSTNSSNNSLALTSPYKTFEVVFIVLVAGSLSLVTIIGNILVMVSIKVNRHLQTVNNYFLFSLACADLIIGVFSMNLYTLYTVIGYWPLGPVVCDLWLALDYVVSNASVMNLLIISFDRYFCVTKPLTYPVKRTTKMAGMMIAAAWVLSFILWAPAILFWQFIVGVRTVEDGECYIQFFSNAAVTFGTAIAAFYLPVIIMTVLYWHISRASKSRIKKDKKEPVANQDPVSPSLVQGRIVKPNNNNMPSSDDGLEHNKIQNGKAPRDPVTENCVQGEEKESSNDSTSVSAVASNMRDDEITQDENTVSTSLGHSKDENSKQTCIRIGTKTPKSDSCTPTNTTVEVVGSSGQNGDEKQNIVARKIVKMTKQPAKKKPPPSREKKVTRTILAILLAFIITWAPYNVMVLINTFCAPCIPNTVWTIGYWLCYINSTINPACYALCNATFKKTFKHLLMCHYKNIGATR

Prothrombin = Prothrombin (Homo sapiens, UniProt P00734); assay type: functional
Mu-type opioid receptor = Mu-type opioid receptor (Homo sapiens, UniProt P35372)
Sequence of Mu-type opioid receptor (P35372 whole entry): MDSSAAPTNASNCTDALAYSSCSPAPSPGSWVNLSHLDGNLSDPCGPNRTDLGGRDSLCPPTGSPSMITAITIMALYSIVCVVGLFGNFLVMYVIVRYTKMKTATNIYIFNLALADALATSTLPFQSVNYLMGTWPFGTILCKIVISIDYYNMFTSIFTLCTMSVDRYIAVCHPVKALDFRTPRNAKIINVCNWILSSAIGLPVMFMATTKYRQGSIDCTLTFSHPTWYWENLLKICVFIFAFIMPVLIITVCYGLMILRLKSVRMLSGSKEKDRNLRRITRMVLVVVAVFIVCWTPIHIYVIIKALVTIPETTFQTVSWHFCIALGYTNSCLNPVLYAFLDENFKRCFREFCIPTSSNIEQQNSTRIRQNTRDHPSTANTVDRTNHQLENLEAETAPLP

[7] = molecular target: T6, 5-hydroxytryptamine receptor 1A (Homo sapiens, UniProt P08908)
T6 sequence (P08908 whole entry): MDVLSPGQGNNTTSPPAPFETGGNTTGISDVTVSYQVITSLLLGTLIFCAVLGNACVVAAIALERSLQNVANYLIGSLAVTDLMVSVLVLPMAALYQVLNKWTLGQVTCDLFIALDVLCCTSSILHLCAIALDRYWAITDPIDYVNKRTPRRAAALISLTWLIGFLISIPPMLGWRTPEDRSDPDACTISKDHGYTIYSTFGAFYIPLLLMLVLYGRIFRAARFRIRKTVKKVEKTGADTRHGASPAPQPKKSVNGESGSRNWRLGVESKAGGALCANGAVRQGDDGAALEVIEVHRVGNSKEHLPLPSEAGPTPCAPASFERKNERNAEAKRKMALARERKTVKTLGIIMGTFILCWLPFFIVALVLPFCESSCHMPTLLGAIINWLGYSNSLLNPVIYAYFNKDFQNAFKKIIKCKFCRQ

D(3) dopamine receptor = D(3) dopamine receptor (Homo sapiens, UniProt P35462)
Sequence of D(3) dopamine receptor (P35462 whole entry): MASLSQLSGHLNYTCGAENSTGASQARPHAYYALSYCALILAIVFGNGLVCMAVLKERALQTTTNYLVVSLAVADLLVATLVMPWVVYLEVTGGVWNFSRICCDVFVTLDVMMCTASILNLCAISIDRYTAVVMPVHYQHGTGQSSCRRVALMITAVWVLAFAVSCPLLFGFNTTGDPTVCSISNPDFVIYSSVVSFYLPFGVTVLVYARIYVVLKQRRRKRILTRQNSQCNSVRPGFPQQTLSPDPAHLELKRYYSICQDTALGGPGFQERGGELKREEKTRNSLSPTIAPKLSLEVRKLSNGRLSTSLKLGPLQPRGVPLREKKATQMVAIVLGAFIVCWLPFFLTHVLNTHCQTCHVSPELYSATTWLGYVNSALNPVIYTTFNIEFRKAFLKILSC

[8] = molecular target: 3',5'-cyclic-AMP phosphodiesterase 4A (Homo sapiens, UniProt P27815); assay type: functional
[9] = molecular target: T2, Prostaglandin G/H synthase 1; assay type: functional; remark: listed apart in the source
Thromboxane A2 receptor [10] = molecular target: T4, Thromboxane A2 receptor; assay type: functional, cell-based; remark: listed apart in the source
Also: assay procedure not described here.

Sequence of Bile salt export pump (O95342 whole entry): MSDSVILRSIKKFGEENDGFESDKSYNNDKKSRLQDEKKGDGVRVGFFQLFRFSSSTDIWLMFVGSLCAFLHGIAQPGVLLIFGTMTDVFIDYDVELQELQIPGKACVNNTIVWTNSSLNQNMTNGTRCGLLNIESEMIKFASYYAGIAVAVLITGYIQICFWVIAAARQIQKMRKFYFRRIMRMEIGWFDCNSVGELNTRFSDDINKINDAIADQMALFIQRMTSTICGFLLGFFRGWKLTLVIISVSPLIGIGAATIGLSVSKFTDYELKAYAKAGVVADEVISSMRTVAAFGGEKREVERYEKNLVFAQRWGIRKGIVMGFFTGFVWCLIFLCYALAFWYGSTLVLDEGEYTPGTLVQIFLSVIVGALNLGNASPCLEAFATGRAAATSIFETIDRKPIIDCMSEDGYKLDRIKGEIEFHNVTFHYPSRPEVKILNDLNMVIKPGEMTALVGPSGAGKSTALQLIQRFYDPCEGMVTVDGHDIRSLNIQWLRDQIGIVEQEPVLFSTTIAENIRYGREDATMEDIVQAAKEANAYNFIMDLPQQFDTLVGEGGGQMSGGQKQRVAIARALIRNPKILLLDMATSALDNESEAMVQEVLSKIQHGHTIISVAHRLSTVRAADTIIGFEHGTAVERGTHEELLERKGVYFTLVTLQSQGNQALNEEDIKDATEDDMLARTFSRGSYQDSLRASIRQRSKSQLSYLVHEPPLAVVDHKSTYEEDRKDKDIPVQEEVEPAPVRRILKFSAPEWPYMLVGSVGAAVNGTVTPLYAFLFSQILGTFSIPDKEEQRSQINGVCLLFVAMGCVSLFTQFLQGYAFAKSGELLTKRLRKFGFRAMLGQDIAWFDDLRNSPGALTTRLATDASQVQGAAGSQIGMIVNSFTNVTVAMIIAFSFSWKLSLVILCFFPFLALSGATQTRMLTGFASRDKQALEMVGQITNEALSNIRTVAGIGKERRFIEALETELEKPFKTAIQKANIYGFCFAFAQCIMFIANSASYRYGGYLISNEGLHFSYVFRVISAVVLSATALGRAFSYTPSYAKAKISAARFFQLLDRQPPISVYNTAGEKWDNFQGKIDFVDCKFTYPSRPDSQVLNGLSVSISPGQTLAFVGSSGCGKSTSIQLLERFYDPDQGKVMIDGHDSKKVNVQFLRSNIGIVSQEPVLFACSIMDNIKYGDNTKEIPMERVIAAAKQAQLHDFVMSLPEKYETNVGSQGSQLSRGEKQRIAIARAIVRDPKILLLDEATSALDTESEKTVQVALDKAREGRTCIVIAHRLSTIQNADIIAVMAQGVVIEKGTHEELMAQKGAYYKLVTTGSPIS

| SMILES | AC50 (Bile salt export pump) [µM] | AC50 [1] [µM] | AC50 [2] [µM] | AC50 (Histamine H3 receptor) [µM] | AC50 [3] [µM] | AC50 (Acetylcholinesterase) [µM] | AC50 [4] [µM] | AC50 (Thromboxane A2 receptor [5]) [µM] | AC50 [6] [µM] | AC50 (Prothrombin) [µM] | AC50 (Mu-type opioid receptor) [µM] | AC50 [7] [µM] | AC50 (D(3) dopamine receptor) [µM] | AC50 [8] [µM] | AC50 [9] [µM] | AC50 (Thromboxane A2 receptor [10]) [µM] |
| --- | --- | --- | --- | --- | --- | --- | --- | --- | --- | --- | --- | --- | --- | --- | --- | --- |
| Cc1cnc(NC(=O)C2=C(O)c3ccccc3S(=O)(=O)N2C)s1 [MELOXICAM] | 160 | – | – | – | – | – | – | – | – | – | – | – | – | – | – | – |
| CC[C@@H](CO)NC(=O)[C@@H]1C=C2c3cccc4[nH]cc(c34)C[C@H]2N(C)C1 [METHYLERGONOVINE] | > 300 | – | – | – | – | – | – | – | – | – | – | – | – | – | – | – |
| CNCCC=C1c2ccccc2CCc2ccccc21 [NORTRIPTYLINE] | > 300 | – | – | – | – | – | – | – | – | – | – | – | – | – | – | – |
| COc1ccnc(C[S+]([O-])c2nc3ccc(OC(F)F)cc3[nH]2)c1OC (stereo not given) [PANTOPRAZOLE] | 190 | – | – | – | – | – | – | – | – | – | – | – | – | – | – | – |
| COc1ccc(Cc2nccc3cc(OC)c(OC)cc23)cc1OC [PAPAVERINE] | 46 | – | – | – | – | – | – | – | – | – | – | – | – | – | – | – |
| CN(C)CCC(c1ccccc1)c1ccccn1 (stereo not given) [PHENIRAMINE] | – | > 30 | > 30 | > 30 | > 30 | > 30 | > 30 | > 30 | 24.7 | > 30 | > 30 | > 30 | > 30 | > 30 | > 30 | > 30 |
| O=C1NC(=O)C(c2ccccc2)(c2ccccc2)N1 [PHENYTOIN] | > 300 | – | – | – | – | – | – | – | – | – | – | – | – | – | – | – |
| CC(C)(C)C(=O)NCCCC(=O)O [PIVAGABINE] | – | > 30 | > 30 | > 30 | > 30 | > 30 | > 30 | > 30 | > 30 | > 30 | > 30 | > 30 | > 30 | > 30 | > 30 | > 30 |
| CC(C)C[C@H](CN)CC(=O)O [PREGABALIN] | > 300 | – | – | – | – | – | – | – | – | – | – | – | – | – | – | – |
| CCOc1cc(CC(=O)N[C@@H](CC(C)C)c2ccccc2N2CCCCC2)ccc1C(=O)O [REPAGLINIDE] | 9.33 | – | – | – | – | – | – | – | – | – | – | – | – | – | – | – |
| NC(=O)c1ncn([C@@H]2O[C@H](CO)[C@@H](O)[C@H]2O)n1 [RIBAVIRIN] | > 300 | – | – | – | – | – | – | – | – | – | – | – | – | – | – | – |
| CN(C)C(=O)c1nc(CNC(=O)CN)n(-c2ccc(Cl)cc2C(=O)c2ccccc2Cl)n1 [RILMAZAFONE] | – | > 30 | > 30 | > 30 | > 30 | > 30 | > 30 | > 30 | > 30 | > 30 | > 30 | > 30 | > 30 | > 30 | 13.5 | > 30 |
| O=C(Nc1c(Cl)cncc1Cl)c1ccc(OC(F)F)c(OCC2CC2)c1 [ROFLUMILAST] | 4 | – | – | – | – | – | – | – | – | – | – | – | – | – | – | – |
| CCCCNc1ccc(C(=O)OCCN(C)C)cc1 [TETRACAINE] | – | 1.41 | > 30 | 24.2 | > 30 | 8.1 | > 30 | > 30 | > 30 | > 30 | > 30 | > 30 | 18.5 | > 30 | > 30 | > 30 |
| CN1CCN(CCCN2c3ccccc3Sc3ccc(S(=O)(=O)N(C)C)cc32)CC1 [THIOPROPERAZINE] | – | > 30 | 23.6 | 13.7 | > 30 | 29 | 1.42 | 9.38 | 2.66 | > 30 | 11.6 | 6.09 | 0.003 | > 30 | > 30 | > 30 |
| CCCCCCCCCCCCCCCC(=O)OC/C=C(C)/C=C/C=C(C)/C=C/C1=C(C)CCCC1(C)C [VITAMIN A PALMITATE] | – | > 30 | > 30 | > 30 | > 30 | > 30 | > 30 | > 30 | > 30 | > 30 | > 30 | > 30 | > 30 | > 30 | > 30 | > 30 |
